≈ marks a conversion by molar mass, not a printed value. Calls of active or inactive are those of the source. The rule behind the calls is not given here.
Tests used:
[1] = Permeability across apical to basolateral side in human Caco-2 cells; format: ADME, cell-based; conditions: read-out: permeability
Cytochrome P450 2C9 = Cytochrome P450 2C9 (Homo sapiens, UniProt P11712); test: Inhibition of CYP2C9 in human liver microsomes; format: ADME, Microsome
[2] = Drug recovery in human plasma relative to control; format: ADME, cell-free
[3] = Half life in human liver microsomes; format: ADME, Microsome
[4] = Permeability across basolateral to apical side in human Caco-2 cells; format: ADME, cell-based; conditions: read-out: permeability
[5] = Lipophilicity, logD of the compound; format: physicochemical; conditions: octanol/water
[6] = Aqueous solubility of the compound in simulated gastric fluid; format: ADME
CYP2C8 = molecular target: T1, CYP2C8 (Homo sapiens, UniProt P10632); test: Inhibition of CYP2C8 in human liver microsomes at 10 uM relative to control; format: ADME, Microsome
T1 sequence (P10632 whole entry): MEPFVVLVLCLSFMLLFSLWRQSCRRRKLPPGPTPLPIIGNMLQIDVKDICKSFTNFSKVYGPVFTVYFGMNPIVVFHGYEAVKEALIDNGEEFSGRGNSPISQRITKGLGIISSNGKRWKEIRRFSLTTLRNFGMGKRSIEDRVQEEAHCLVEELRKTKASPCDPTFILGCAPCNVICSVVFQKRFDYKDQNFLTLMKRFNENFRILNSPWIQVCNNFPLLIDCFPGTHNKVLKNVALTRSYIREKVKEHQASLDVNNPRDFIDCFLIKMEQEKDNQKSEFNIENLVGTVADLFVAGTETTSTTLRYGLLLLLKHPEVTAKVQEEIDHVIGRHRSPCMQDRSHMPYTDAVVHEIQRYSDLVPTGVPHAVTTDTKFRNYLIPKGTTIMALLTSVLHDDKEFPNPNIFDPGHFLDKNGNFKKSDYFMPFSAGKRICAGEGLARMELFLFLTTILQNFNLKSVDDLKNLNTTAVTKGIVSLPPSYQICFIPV

Cytochrome P450 2C19 = Cytochrome P450 2C19 (Homo sapiens, UniProt P33261); test: Inhibition of CYP2C19 in human liver microsomes; format: ADME, Microsome
[7] = Plasma protein binding in human relative to control; format: ADME, cell-free; conditions: read-out: PPB (converted)
Cytochrome P450 2C8 = molecular target: T2, Cytochrome P450 2C8 (Homo sapiens, UniProt P10632); test: Inhibition of CYP2C8 in human liver microsomes; format: ADME, Microsome
T2 sequence (P10632 whole entry): T1 sequence (P10632 whole entry)

CYP2C9 = CYP2C9 (Homo sapiens, UniProt P11712); test: Inhibition of CYP2C9 in human liver microsomes at 10 uM relative to control; format: ADME, Microsome
HDFa = test: Antiproliferative activity against human HDFa cells assessed as reduction in cell viability measured at 48 hrs by MTT assay; format: functional, cell-based
[8] = Aqueous solubility of the compound in simulated intestinal fluid; format: ADME
CYP2C19 = CYP2C19 (Homo sapiens, UniProt P33261); test: Inhibition of CYP2C19 in human liver microsomes at 10 uM relative to control; format: ADME, Microsome
HeLa [9] = test: Antiproliferative activity against human HeLa cells assessed as reduction in cell viability measured at 24 hrs by MTT assay; format: functional, cell-based
HeLa [10] = test: Antiproliferative activity against human HeLa cells assessed as reduction in cell viability measured at 48 hrs by MTT assay; format: functional, cell-based
CYP3A = CYP3A (Homo sapiens, UniProt P08684+P20815+P24462+Q9HB55); test: Inhibition of CYP3A in human liver microsomes at 10 uM relative to control; format: ADME, Microsome
[11] = Aqueous solubility of compound in PBS at pH 7.4; format: physicochemical
[12] = Toxicity in nude mouse xenografted with human MCF7 cells assessed as side effects at 400 mg/kg, po; format: organism-based; conditions: in vivo

Sequence of CYP2C19 (P33261 whole entry): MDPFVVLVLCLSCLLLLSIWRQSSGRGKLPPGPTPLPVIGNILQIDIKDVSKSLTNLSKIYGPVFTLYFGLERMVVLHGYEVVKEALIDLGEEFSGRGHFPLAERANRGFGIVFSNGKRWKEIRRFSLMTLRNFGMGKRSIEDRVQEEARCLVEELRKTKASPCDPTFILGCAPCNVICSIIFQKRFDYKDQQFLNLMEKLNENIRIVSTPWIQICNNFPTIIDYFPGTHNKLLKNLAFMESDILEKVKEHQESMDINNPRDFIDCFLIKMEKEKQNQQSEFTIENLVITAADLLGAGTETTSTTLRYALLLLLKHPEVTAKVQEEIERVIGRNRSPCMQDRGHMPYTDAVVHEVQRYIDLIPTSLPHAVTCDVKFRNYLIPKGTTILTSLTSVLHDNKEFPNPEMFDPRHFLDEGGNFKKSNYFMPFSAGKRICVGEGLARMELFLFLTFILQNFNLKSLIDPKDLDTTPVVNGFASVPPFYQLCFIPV
Sequence of Cytochrome P450 2C19 (P33261 whole entry): as above
Sequence of CYP2C9 (P11712 whole entry): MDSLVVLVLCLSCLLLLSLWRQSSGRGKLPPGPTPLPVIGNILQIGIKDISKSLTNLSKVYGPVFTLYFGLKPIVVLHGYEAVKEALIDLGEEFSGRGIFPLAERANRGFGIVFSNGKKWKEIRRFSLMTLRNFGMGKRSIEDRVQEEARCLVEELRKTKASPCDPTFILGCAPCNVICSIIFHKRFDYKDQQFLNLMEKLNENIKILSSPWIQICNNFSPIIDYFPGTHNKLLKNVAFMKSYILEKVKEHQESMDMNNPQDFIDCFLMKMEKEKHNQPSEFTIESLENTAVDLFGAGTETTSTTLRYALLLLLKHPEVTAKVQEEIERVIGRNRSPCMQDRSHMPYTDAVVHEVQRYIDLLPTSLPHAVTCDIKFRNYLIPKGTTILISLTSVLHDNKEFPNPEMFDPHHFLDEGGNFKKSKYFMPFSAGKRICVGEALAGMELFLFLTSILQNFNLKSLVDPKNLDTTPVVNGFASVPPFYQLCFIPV
Sequence of Cytochrome P450 2C9 (P11712 whole entry): as above

| IC50 (HeLa [9]) [µM] | IC50 (HeLa [10]) [µM] | SMILES | also measured |
| --- | --- | --- | --- |
| 1.92 | 0.878 | CC(=O)c1c(O)c(C)c(O)c2c1OC1=CC(=O)c3c(n[nH]c3C)[C@@]12C | Papp A→B [1]: 113 nm/s; IC50 (Cytochrome P450 2C9): 0.094 µM; Drug recovery [2]: 19%; half-life [3]: > 1 h; Papp B→A [4]: 16 nm/s; logD [5]: > 3.68; solubility [6]: > 200 µM; inhibition at 10 µM (CYP2C8): 52.6%; IC50 (Cytochrome P450 2C19): 0.009 µM; fraction unbound [7]: 0.04; IC50 (Cytochrome P450 2C8): 1.9 µM; inhibition at 10 µM (CYP2C9): 74.6%; Activity (HDFa): inactive; solubility [8]: 11.5 µM (≈ 3.91 µg/mL); inhibition at 10 µM (CYP2C19): 65.9%; inhibition at 10 µM (CYP3A): 51.3%; solubility [11]: 4 µM (≈ 1.36 µg/mL) |
| > 15 | > 15 | CC(=O)c1c(O)c(C)c(O)c2c1OC1=Cc3c(c(C)nn3CCO)C(=O)[C@@]12C | – |
| 0.928 | 0.116 | CC(=O)c1c(O)c(C)c(O)c2c1OC1=CC(=O)c3c(nn(C)c3C)[C@@]12C | Activity (HDFa): inactive |
| > 15 | > 15 | CC(=O)c1c(O)c(C)c(O)c2c1OC1=Cc3c(c(C)nn3CCBr)C(=O)[C@@]12C | – |
| > 15 | 11 | CCn1nc(C)c2c1C=C1Oc3c(C(C)=O)c(O)c(C)c(O)c3[C@@]1(C)C2=O | – |
| 7.15 | 2.21 | CC(=O)c1c(O)c(C)c(O)c2c1OC1=Cc3onc(C)c3C(=O)[C@@]12C | Papp A→B [1]: 22 nm/s; Drug recovery [2]: 19%; half-life [3]: 0.383 h; Papp B→A [4]: 2 nm/s; logD [5]: 3.32; solubility [6]: 37.6 µM (≈ 12.8 µg/mL); inhibition at 10 µM (CYP2C8): 8.5%; Activity [12]: Non-Toxic; fraction unbound [7]: 0.06; solubility [8]: 1.6 µM (≈ 0.546 µg/mL); inhibition at 10 µM (CYP2C19): 15.6%; inhibition at 10 µM (CYP3A): 14.7%; solubility [11]: 0.2 µM (≈ 0.0683 µg/mL) |
| > 15 | > 15 | CC(=O)c1c(O)c(C)c(O)c2c1O[C@@H]1Cc3n[nH]c(C)c3[C@H](O)[C@]21C | – |
| > 15 | > 15 | CC(=O)c1c(O)c(C)c(O)c2c1OC1=CC(=O)c3c(C)nn(C)c3[C@@]12C | – |
| > 15 | > 15 | CC(=O)c1c(O)c(C)c(O)c2c1OC1=CC(O)=C(/C(C)=N/N(C)C)C(=O)[C@@]12C | – |
| > 15 | > 15 | CC(=O)c1c(O)c(C)c(O)c2c1O[C@@H]1Cc3n[nH]c(C)c3C(=O)[C@]21C | – |
| > 15 | 8.65 | CC(C)=N/N=C(\C)c1c(O)c(C)c(O)c2c1OC1=CC(=O)c3c(n[nH]c3C)[C@@]12C | – |
| > 15 | > 15 | CC(=O)c1c(O)c(C)c(O)c2c1OC1=CC(=O)c3c(C)noc3[C@@]12C | – |
| > 15 | > 15 | CC(=O)c1c(O)c(C)c(O)c2c1OC1=CC(O)=C(/C(C)=N/N)C(=O)[C@@]12C | – |
| > 15 | > 15 | CC(=O)C1=C(O)C=C2Oc3c(C(C)=O)c(O)c(C)c(O)c3[C@@]2(C)C1=O [(+)-USNIC ACID] | Drug recovery [2]: 95%; half-life [3]: 1.32 h; fraction unbound [7]: 0.0024 |
| > 15 | > 15 | CC(=O)c1c(O)c(C)c(O)c2c1OC1=Cc3c(c(C)nn3C(C)(C)C)C(=O)[C@@]12C | – |
| 1.36 | 0.311 | CC(=O)c1c(O)c(C)c(O)c2c1OC1=Cc3[nH]nc(C)c3C(=O)[C@@]12C | Activity (HDFa): inactive |
| > 15 | > 15 | CC(=O)c1c(O)c(C)c(O)c2c1OC1=Cc3c(c(C)nn3-c3ccccn3)C(=O)[C@@]12C | – |
| > 15 | 3.91 | CC(=O)c1c(O)c(C)c(O)c2c1OC1=Cc3c(c(C)nn3C)C(=O)[C@@]12C | – |

| SMILES | IC50 (HeLa [9]) [µM] | IC50 (HeLa [10]) [µM] | also measured |
| --- | --- | --- | --- |
| COc1cccc2c1C(=O)c1c(O)c3c(c(O)c1C2=O)C[C@@](O)(C(=O)CO)C[C@@H]3O[C@H]1C[C@H](N)[C@H](O)[C@H](C)O1 [DOXORUBICIN] | 3.33 | 0.429 | – |
